We go through eight compounds from ChEMBL document CHEMBL1151004, “The synthesis and structure activity relationships of enantiomerically pure hydroxylated oxotremorine derivatives” (Bioorg Med Chem Lett, 1992).

The Ki is a measure of affinity in units of concentration, obtained from inhibition or displacement. Read a high Ki as lower affinity.

Assay [1] deals with Muscarinic acetylcholine receptor. Put plainly: In vitro ability to displace [3H]quinuclidinyl benzilate [3H]QNB) from rat cortical Muscarinic acetylcholine receptor in competition assay. Format: protein assay.
For assay [2] the target is unchanged. Put plainly: In vitro ability to displace 3H-cis-methyltrimethylammoniummethyl-1,3-dioxolane [3H]CD) from rat cortical Muscarinic acetylcholine receptor in competition assay. Type of assay: protein assay.
Assay [3] in a line: Compound was evaluated for ratio of 3H-QNB, [3H]CD.

`O=C1C[C@@H](O)CN1CC#CCN1CCCC1`: the Ki in assay [1] is 3 µM; in assay [2], 0.078 µM. Further, in assay [3], the Ratio worked out at 38.

With `O=C1C[C@H](O)CN1CC#CCN1CCCC1`, the Ki in assay [1] was 7.5 µM; in assay [2], 8.56 µM. Moreover, the Ratio in assay [3] came to 0.9.

Take `O=C1CCCN1CC#CCN1CC[C@@H](O)C1`: the values for the Ki in assay [1] and in assay [2] were 1.8 µM and 2.38 µM, respectively. The Ratio in assay [3] came to 0.7.

On to `C[N+](C)(C)CCOC(N)=O`, for which the Ratio in assay [3] amounted to 2000.

As for `O=C1[C@@H](O)CCN1CC#CCN1CCCC1`, the figures for the Ki in assay [1] and in assay [2] were 1.4 µM and 0.009 µM, respectively. Further, the Ratio in assay [3] amounted to 150.

Consider `O=C1CCCN1CC#CCN1CC[C@H](O)C1`, for which the results for the Ki in assay [1] and in assay [2] were 1.2 µM and 0.61 µM, respectively. For the same compound, the Ratio in assay [3] came to 2.

For the compound `O=C1CCCN1CC#CCN1CCCC1`, in assay [3], the Ratio came out at 120.

Turning to `O=C1[C@H](O)CCN1CC#CCN1CCCC1`, the Ki in assay [1] is 2.1 µM; in assay [2] it was 0.12 µM. The Ratio in assay [3] worked out at 17.
